# Patent US20210161999A1, “COMPOSITIONS AND METHODS RELATED TO OVERCOMING INNATE IMMUNE BARRIERS TO CANCER IMMUNOTHERAPY” (Health Research, Inc., priority 2018, published 2021)
# “Also recorded” adds a separate entry of the source.
# How the values were obtained:
# Type in all cases: cell-based, human
# [1] = tested on: iC3b/C3b deposition on PMN; assay: Deposition of iC3b/C3b on PMN after 1.5 h coculture (clone 3E7/C3b); conditions: PMN and T cells cocultured in treated ASC for 1.5 h (n=3 ASC)
# Description: FIG. 16. Complement activation in ASC results in C3b/iC3b deposition on PMN and mediates the PMN suppressor phenotype via the AP and classical pathways. A) Activation of complement in ASC principally occurs via the AP and classical pathways, though inter-patient variability was observed. ASC were assessed for complement activity by WIESLAB ELISA kits that detect formation of C5b-9. Percent (%) activity is in relation to the provided positive control (n=38 ASC, **, p=0.0015; ****, p<0.0001). […] C) PMN and T cells were cocultured in media, ASC, Cp40-ASC, or SCR-ASC for 1.5 h. Deposition of iC3b/C3b (clone 3E7/C3b recognizes both C3b and iC3b) on PMN was increased with ASC versus media, while iC3b/C3b deposition on T cells was unaffected by ASC (not shown). iC3b/C3b binding to PMN was decreased by Cp40-ASC, and unaffected by SCR-ASC (n=3 ASC).
# [2] = tested on: PMN suppressor phenotype induced by malignant effusions; assay: Coculture of PMN and stimulated T cells with malignant effusions (pleural fluid, ascites) of various metastatic cancers; T cell proliferation; conditions: Cp40-treated malignant pleural fluid/ascites from various metastatic cancers (n=7)
# Source text: We analyzed whether the PMN suppressor phenotype induced by EOC ascites would also occur following PMN exposure to other malignant effusions. We observed a similar PMN suppressor phenotype when PMN and anti-CD3/CD28-stimulated T cells were cocultured with malignant pleural and ascites supernatants from patients with a number of metastatic cancers (18/20 samples induced a PMN suppressor or intermediate suppressor phenotype). Using samples that met the suppressor definition (Table 3), the PMN suppressor phenotype induced by malignant pleural and ascites was also abrogated by Cp40-treatment (FIG. 3K).
# Patients and Specimens. Participants included healthy donors, control female patients with a benign adnexal mass undergoing resection surgery, and cancer patients with malignant effusions. Healthy donors (n=4) were Caucasian, aged 26-51, and equally divided between sexes. […]
# Freshly isolated T cells (1e5) were stimulated with anti-CD3/CD28 Dynabeads (2.5 μl; Thermo Fisher Scientific) and cocultured with autologous PMN (1:1) and ascites supernatants (50% final well volume) in an incubator at 37° C., 5% CO2. […] Cells were harvested onto a Filtermat and counted on a Beta counter. Results are expressed as net cpm [calculated by subtracting the average cpm of unstimulated T cells from the average cpm of stimulated T cells]. […]
# TALs = assay: Coculture of TALs with autologous ascites and healthy donor PMN; anti-CD3/CD28-stimulated proliferation; conditions: Cp40-ASC; TALs from n=3 patients, PMN from healthy donors
# Source text: FIG. 15. Inhibition of complement C3 activation abrogates the PMN suppressor phenotype induced by malignant effusions. […] The abrogation effect of Cp40 was highly robust, and was observed consistently in at least 10 separate experiments and 15 different ascites samples. […] C) Cryopreserved or fresh TALs (from n=3 patients) were cocultured with autologous ASC and/or PMN from healthy donors. […] Statistics are by ANOVA as compared to +CD3/CD28+ ASC+PMN (*, p<0.05; **, p<0.01; ***, p<0.001).
# Inhibition of C3 abrogates neutrophil suppressor phenotype on EOC TALs In patients with metastatic EOC, tumor antigen-specific CD8^+ T cells have impaired effector function and increased co-expression of PD-1 and LAG-3 compared to circulating lymphocytes, and effector function was enhanced with blockade of PD-1 and LAG-3. We confirmed high expression of PD-1 and LAG-3 on TALs from the ascites of patients with newly diagnosed EOC (not shown). We next cocultured cryopreserved or fresh TALs from 3 patients with autologous ascites and/or neutrophils from healthy donors.
smiles,measurement,setting,value
CC[C@H](C)[C@H](NC(=O)[C@H](N)Cc1ccc(O)cc1)C(=O)N[C@H]1CSSC[C@@H](C(=O)N(C)[C@H](C(N)=O)[C@@H](C)CC)NC(=O)[C@H](CCCNC(=N)N)NC(=O)[C@H](Cc2c[nH]cn2)NC(=O)[C@H](C)NC(=O)CN(C)C(=O)[C@H](Cc2c[nH]c3ccccc23)NC(=O)[C@H](CC(=O)O)NC(=O)[C@H](CCC(N)=O)NC(=O)[C@H](Cc2cn(C)c3ccccc23)NC(=O)[C@H](C(C)C)NC1=O [Cp40],iC3b/C3b binding to PMN,[1],reduced; also recorded: decreased
same,effect on PMN suppressor phenotype induced by malignant effusions,[2],abrogated by Cp40-treatment in all of the tested samples
same,effect on suppression of stimulated TAL proliferation,TALs,fully abrogated
